Where two headings read alike, the source gives them in different places.
Columns and labels:
rats = experiment: Reversal of the effect of the mGluR2 PAM JNJ-42153605-induced inhibition of scopolamine-induced hyperlocomotion; format: in vivo, rat; details: for ED50: rat, route PO (route cell empty for Co. No. 22, 25, 18, 19, 29), criterion total distance >1500 cm, read-out: ED50 SCOP JNJ-42153605
Method: 2) Reversal of the Effect of the mGluR2 PAM JNJ-42153605-Induced Inhibition of Scopolamine-Induced Hyperlocomotion Apparatus
Motor activity was measured in microprocessor-based motor activity arenas (closed gray PVC cylinders with a height of 39 cm and a diameter of 31 cm). Each arena was placed on an infrared LED (8×8 LEDs) lit box (white PVC squared box; 40×40 cm^2; height 12.5 cm. An infrared-sensitive tube camera and a white light source were mounted to the ceiling above the observation chamber to track the animal. The total distance traveled (cm) was recorded and analyzed using the Noldus Ethovision XT Video Tracking System (Version 7.0.418; Noldus, Wageningen, The Netherlands). The intensity of the light within the activity cages (measured in the centre at the level of the floor) ranged between 4 and 8 LUX.
The rats were pretreated with test compound or vehicle at 60 min before the start of the activity recordings and placed into individual cages. The rats were challenged with JNJ-42153605 (3-(cyclopropylmethyl)-7-(4-phenylpiperidin-1-yl)-8-(trifluoromethyl)-[1,2,4]triazolo[4,3-a]pyridine; WO2010/130424; Cid et al. J. Med. Chem. 2012, 55, 8770-8789) (20 mg/kg, i.v.) 30 min before the start of the activity recording combined with scopolamine (0.16 mg/kg, i.v.) just before the start of the activity measurements. Immediately after the injection of scopolamine, the rats were placed into the activity monitors and total distance travelled over the first 30 min was measured.
Solvent-Pretreated Control Rats.
For reversal of the inhibitory effect of JNJ-42153605 on the scopolamine-induced hyperlocomotion, the following all-or-none criteria were adopted: (1) reversal: total distance >1500 cm.

human mGlu2 receptor = human mGlu2 receptor (Homo sapiens, UniProt Q14416); experiment: [35S]GTPγS binding assay, negative allosteric modulation of mGluR2; details: for Emax: read-out: GTPγS - hmGluR2 anGT Emax;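 for all read-outs here: membranes from CHO cells expressing the receptor, compound with glutamate near EC80 (60 µM), 30 min preincubation then 30 min label uptake at 30 °C, percent of control glutamate response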
Method: Here we describe the use of the [^35S]GTPγS binding assay using membranes from cells transfected with the human mGlu2 receptor and adapted from Schaffhauser et al. (Molecular Pharmacology, 2003, 4:798-810) for the detection of the negative allosteric modulation (NAM) properties of the compounds of this invention.
CHO-cells were cultured to pre-confluence and stimulated with 5 mM butyrate for 24 h. Cells were then collected by scraping in PBS and cell suspension was centrifuged (10 min at 4000 RPM in benchtop centrifuge). Supernatant was discarded and pellet gently resuspended in 50 mM Tris-HCl, pH 7.4 by mixing with an Ultra Turrax homogenizer. The suspension was centrifuged at 12,400 RPM (Sorvall F14S-6x250Y) for 10 minutes and the supernatant discarded. The pellet was homogenized in 5 mM Tris-HCl, pH 7.4 using an Ultra Turrax homogenizer and centrifuged again (13,000 RPM, 20 min, 4° C.). The final pellet was resuspended in 50 mM Tris-HCl, pH 7.4 and stored at −80° C. in appropriate aliquots before use. Protein concentration was determined by the Bradford method (Bio-Rad, USA) with bovine serum albumin as standard.
Measurement of mGluR2 negative allosteric modulatory activity of test compounds was performed as follows. Test compounds and glutamate were diluted in assay buffer containing 10 mM HEPES acid, 10 mM HEPES salt, pH 7.4, 100 mM NaCl, 3 mM MgCl2 and 10 μM GDP. Human mGlu2 receptor-containing membranes were thawed on ice and diluted in assay buffer supplemented with 18 μg/ml saponin. Membranes were pre-incubated with compound together with a predefined (˜EC80) concentration of glutamate (60 μM) for 30 min at 30° C. After addition of [^35S]GTPγS (f.c. 0.1 nM), assay mixtures were shaken briefly and further incubated to allow [^35S]GTPγS incorporation on activation (30 minutes, 30° C.). Final assay mixtures contained 7 μg of membrane protein in 10 mM HEPES acid, 10 mM HEPES salt, pH 7.4, 100 mM NaCl, 3 mM MgCl2, 10 μM GDP and 10 μg/ml saponin. Total reaction volume was 200 μl. Reactions were terminated by rapid filtration through Unifilter-96 GF/B plates (Perkin Elmer, Massachusetts, USA) using a 96-well filtermate universal harvester. Filters were washed 6 times with ice-cold 10 mM NaH2PO4/10 mM Na2HPO4, pH 7.4. Filters were then air-dried and 30 μl of liquid scintillation cocktail (Microscint-O) was added to each well. Membrane-bound radioactivity was counted in a Topcount.
Data were calculated as % of the control glutamate response, defined as the response that is generated upon addition of an EC80-equivalent concentration of glutamate. Sigmoid concentration-response curves plotting these percentages versus the log concentration of the test compound were analyzed using non-linear regression analysis. The concentration producing half-maximal inhibition was calculated as the IC50. The pIC50 values were calculated as the −log IC50, when the IC50 is expressed in M. Emax is defined as the relative maximal effect (i.e. maximal % inhibition relative to the control glutamate response).

[1] = test system: apomorphine-challenged rats; experiment: Reversal of LY-404039-induced decrease of palpebral opening in apomorphine-challenged rats; format: in vivo, rat; details: for ED50: rat, criterion cumulative palpebral opening score >26, read-out: ED50 APO LY-404039
Method: B) In Vivo Pharmacology 1) Reversal of LY-404039-Induced Decrease of Palpebral Opening in Apomorphine-Challenged Rats.
Male Wiga Wistar rats (Crl:WI; Charles River Germany; 220±40 g) were housed under standard laboratory conditions (21±2° C.; 50-65% relative humidity; light-dark cycle set at 12 h; lights on at 6.00 h) and fasted overnight prior to the start of the experiments (tap water remained available ad libitum). During the test period, they were housed in individual cages. Palpebral opening was scored every 5 min over the first hour after injection of apomorphine (1.0 mg/kg, i.v.) in animals either pretreated or not pretreated with LY-404039 (2.5 mg/kg, s.c.) at 1 h prior to the apomorphine injection. The animals were also pretreated with test compound or solvent at a predefined interval before apomorphine challenge. The score system was: (5) exophthalmos, (4) wide open, (3) open for three-quarters, (2) half open, (1) open for one-quarter, (0) closed. The scores for palpebral opening were cumulated over the 60-min observation period.

Induction of mydriasis = details: Wiga, in vivo, rat, route PO; for ED50: maximum pupil diameter >25 units over 1, 2 or 3 h post-administration, read-out: ED50 MYD Test 2
Method: 3) Induction of Mydriasis
The pupil diameter of Wiga rats was measured with a microscopic micrometer (1 unit= 1/24 mm). Criteria for drug-induced effects: pupil diameter >25 units for mydriasis (in controls: 1.9%) 1 h post-administration of the test compound (test 1) or 1, 2 or 3 h post-administration of the test compound (test 2, wherein the maximum pupil diameter over the full 3 h period is reported).

[2] = historical solvent-pretreated control rats, first 30 min
[3] = control rats, scores cumulated over 60 min

Chain of human mGlu2 receptor (Q14416 19-872): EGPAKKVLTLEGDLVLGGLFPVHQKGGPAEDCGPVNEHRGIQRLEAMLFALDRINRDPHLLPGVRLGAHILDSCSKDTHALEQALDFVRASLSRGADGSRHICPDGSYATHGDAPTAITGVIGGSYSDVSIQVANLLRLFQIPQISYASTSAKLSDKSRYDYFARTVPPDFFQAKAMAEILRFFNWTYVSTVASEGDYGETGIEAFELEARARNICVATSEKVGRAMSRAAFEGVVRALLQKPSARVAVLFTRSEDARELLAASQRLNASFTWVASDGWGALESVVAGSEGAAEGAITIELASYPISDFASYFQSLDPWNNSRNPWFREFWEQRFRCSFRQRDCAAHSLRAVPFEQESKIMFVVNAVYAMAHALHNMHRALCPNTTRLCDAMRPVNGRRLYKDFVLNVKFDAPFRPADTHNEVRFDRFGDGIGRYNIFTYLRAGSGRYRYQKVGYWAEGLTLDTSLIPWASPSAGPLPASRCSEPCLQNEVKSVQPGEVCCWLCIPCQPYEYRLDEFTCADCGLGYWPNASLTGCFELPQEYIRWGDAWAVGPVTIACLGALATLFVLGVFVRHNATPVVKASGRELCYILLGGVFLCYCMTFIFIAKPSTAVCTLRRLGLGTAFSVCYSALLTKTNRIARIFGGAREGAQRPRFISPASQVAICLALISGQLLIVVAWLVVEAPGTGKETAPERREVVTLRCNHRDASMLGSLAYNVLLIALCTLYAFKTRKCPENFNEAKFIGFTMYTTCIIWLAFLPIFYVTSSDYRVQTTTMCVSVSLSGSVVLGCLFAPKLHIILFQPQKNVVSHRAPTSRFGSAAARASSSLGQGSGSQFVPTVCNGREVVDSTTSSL

Row | Structure (SMILES) | IC50 (human mGlu2 receptor) [nM] | Emax (human mGlu2 receptor) [%] | also measured
1 | CN1[C@@H]2C[C@@H](OC(=O)[C@H](CO)c3ccccc3)C[C@H]1[C@@H]1O[C@@H]12 [Scopolamine, scopolamine, reference compound] | – | – | Total distance >1500 cm (%) (rats; [2]): 100%; Total distance >4400 cm (%) (rats; [2]): 95.8%; Total distance travelled, Median (cm) (rats; [2]): 7246 cm
2 | C[C@H]1CN(c2ccc(C(F)(F)F)cn2)C(=O)c2c(C#Cc3ccc(N)nc3)cnn21 [compound 4] | 2.4 | 103 | –
3 | C[C@H]1CN(c2ccc(Cl)c(Cl)c2)C(=O)c2c(C#Cc3ccc(N(C)C)nc3)cnn21 [compound 12] | 33.1 | 107 | –
4 | C[C@H]1CN(c2ccc(C(F)(F)F)cc2)C(=O)c2c(C#Cc3ccc(S(=O)(=O)F)cc3)cnn21 [compound 35] | 42.7 | 108 | –
5 | C[C@H]1CN(c2ccc(Cl)c(Cl)c2)C(=O)c2c(C#Cc3ccc(F)nc3)cnn21 [compound 7] | 6.76 | 105 | –
6 | C[C@H]1CN(c2ccc(C(F)(F)F)cc2)C(=O)c2c(C#Cc3cnc(N)cc3CF)cnn21 [compound 23] | 2.75 | 106 | –
7 | COc1nc(N2C[C@H](C)n3ncc(C#Cc4ccc(N)nc4)c3C2=O)ccc1C(F)(F)F [compound 33] | 2.51 | 109 | –
8 | COCc1cncc(C#Cc2cnn3c2C(=O)N(c2ccc(C(F)(F)F)cc2)C[C@@H]3C)c1 [compound 27] | 97.7 | 106 | –
9 | COCc1cc(C#Cc2cnn3c2C(=O)N(c2ccc(C(F)(F)F)cc2)C[C@@H]3C)cnc1N [compound 20] | 24 | 102 | –
10 | CNc1ccc(C#Cc2cnn3c2C(=O)N(c2ccc(Cl)c(Cl)c2)C[C@@H]3C)cn1 [compound 3] | 2.24 | 105 | –
11 | C[C@H]1CN(c2ccc(C(F)(F)F)cc2)C(=O)c2c(C#Cc3cncc(CF)c3)cnn21 [compound 26] | 37.2 | 108 | –
12 | Cc1ccc(C#Cc2cnn3c2C(=O)N(c2ccc(C(F)(F)F)cc2)C[C@@H]3C)cn1 [compound 11] | 10.2 | 103 | –
13 | C[C@H]1CN(c2ccc(C(F)(F)F)cc2)C(=O)c2c(C#Cc3cnc(N)c(CF)c3)cnn21 [compound 21] | 41.7 | 102 | –
14 | C[C@H]1CN(c2ccc(C(F)C(F)(F)F)cc2)C(=O)c2c(C#Cc3ccc(N)nc3)cnn21 (some centres unmarked) [compound 16] | 7.08 | 104 | –
15 | C[C@H]1CN(c2ccc(Cl)c(Cl)c2)C(=O)c2c(C#Cc3ccc(N)nc3)cnn21 [compound 2] | 1.12 | 105 | –
16 | CN1CCc2cccc3c2[C@H]1Cc1ccc(O)c(O)c1-3 [Apomorphine alone, apomorphine] | – | – | Palpebral opening score, Median score ([1]; control rats, apomorphine 1.0 mg/kg i.v., LY-404039 2.5 mg/kg s.c., scores cumulated over 60 min): 43; Palpebral opening score, Occurrence score >26 (%) [1, 3]: 99.5%; Palpebral opening score, Occurrence score >34 (%) [1, 3]: 95.9%; Palpebral opening score, Occurrence score >34 (%) ([1]; control rats, scores cumulated over 60 min, listed as apomorphine alone): 95.5%
17 | CNc1ccc(C#Cc2cnn3c2C(=O)N(c2ccc(C(F)(F)F)c(Cl)n2)C[C@@H]3C)cn1 [compound 31] | 8.71 | 111 | –

Row | Structure (SMILES) | IC50 (human mGlu2 receptor) [nM] | Emax (human mGlu2 receptor) [%] | also measured
18 | CNc1ncccc1C#Cc1cnn2c1C(=O)N(c1ccc(C(F)(F)F)cc1)C[C@@H]2C [compound 24] | 15.8 | 99 | –
19 | CNc1ccc(C#Cc2cnn3c2C(=O)N(c2ccc(C(F)(F)F)c(OC)n2)C[C@@H]3C)cn1 [compound 32] | 9.33 | 106 | –
20 | C[C@H]1CN(c2ccc(C(F)(F)F)c(Cl)c2)C(=O)c2c(C#Cc3cnc(N)cc3CO)cnn21 [compound 22] | 0.832 | 106 | ED50 (rats): > 0.63 mg/kg
21 | C[C@H]1CN(c2ccc(C(F)(F)F)cc2)C(=O)c2c(C#Cc3ccccc3)cnn21 [compound 5] | 4.07 | 105 | –
22 | C[C@H]1CN(c2ccc(C(F)(F)F)c(CF)n2)C(=O)c2c(C#Cc3ccc(N)nc3)cnn21 [compound 19] | 2.14 | 104 | ED50 (rats): > 0.63 mg/kg
23 | C[C@H]1CN(c2ccc(C(F)(F)F)cc2)C(=O)c2c(C#Cc3cnc(N)cc3CO)cnn21 [compound 29] | 2.95 | 106 | ED50 (rats): > 0.63 mg/kg
24 | C[C@H]1CN(c2ccc(C(F)(F)F)cc2)C(=O)c2c(C#Cc3ccnc(N)c3)cnn21 [compound 10] | 10 | 105 | –
25 | COc1ccc(C#Cc2cnn3c2C(=O)N(c2ccc(Cl)c(Cl)c2)C[C@@H]3C)cn1 [compound 6] | 5.62 | 106 | –
26 | COCc1cc(N)ncc1C#Cc1cnn2c1C(=O)N(c1ccc(C(F)(F)F)cc1)C[C@@H]2C [compound 25] | 2.24 | 105 | ED50 (rats): 0.08 mg/kg
27 | COc1ccc(N2C[C@H](C)n3ncc(C#Cc4ccc(N)nc4)c3C2=O)cc1Cl [compound 8] | 8.51 | 107 | –
28 | C[C@H]1CN(c2ccc(C(F)(F)F)cc2)C(=O)c2c(C#Cc3cncc(CO)c3)cnn21 [compound 28] | 53.7 | 101 | –
29 | C[C@H]1CN(c2ccc(C(F)(F)F)cc2)C(=O)c2c(C#Cc3cccc(S(=O)(=O)F)c3)cnn21 [compound 34] | 14.5 | 110 | –
30 | C[C@H]1CN(c2ccc(C(F)(F)F)c(F)c2)C(=O)c2c(C#Cc3ccc(N)nc3)cnn21 [compound 18] | 2.69 | 107 | ED50 (rats): 0.13 mg/kg
31 | C[C@H]1CN(c2ccc(C(F)(F)F)cc2)C(=O)c2c(C#Cc3cccnc3N)cnn21 [compound 17] | 14.8 | 105 | –
32 | Cc1cc(C#Cc2cnn3c2C(=O)N(c2ccc(C(F)(F)F)cc2)C[C@@H]3C)ccn1 [compound 9] | 8.71 | 107 | –
33 | C[C@H]1CN(c2ccc(C(F)(F)F)cc2)C(=O)c2c(C#Cc3ccc(N)nc3)cnn21 [compound 1] | 1.58 | 106 | ED50 (Induction of mydriasis): > 40 mg/kg; ED50 at 1 h (Induction of mydriasis; pupil diameter >25 units 1 h post-administration, read-out: ED50 MYD Test 1): > 10 mg/kg; ED50 ([1]; route PO): 0.08 mg/kg; ED50 ([1]; route SC): 0.06 mg/kg; ED50 (rats): 0.17 mg/kg
34 | C[C@H]1CN(c2ccc(C(F)(F)F)c(Cl)c2)C(=O)c2c(C#Cc3ccc(N)nc3)cnn21 [compound 13] | 1.1 | 108 | ED50 (Induction of mydriasis): > 40 mg/kg; ED50 (rats): 0.028 mg/kg

— patent publication US10112949B2, “6,7-dihydropyrazolo[1,5-a]pyrazin-4(5H)-one compounds and their use as negative allosteric modulators of mGluR2 receptors” (Janssen Pharmaceutica NV, priority 2014, dated 2018)
